The test system of this assay is P388. Briefly: Cytotoxicity against mouse P388 cells. The format is functional, cell-based.

In brackets after ≈: the same amount, converted by molar mass.

As usually defined, the IC50 is the concentration at which inhibition is half-maximal. A higher IC50 goes with weaker potency in that assay.

`C[C@@H]1[C@@H]2[C@@H](O)C(=O)O[C@@H]3C[C@@]4(C)C(=C(O[C@@]5(C)CC(=O)O[C@@H]45)[C@@H]1O)[C@]23CO` [CEDRONOLACTONE E] displayed a concentration for half-maximal inhibition (IC50) of 51 µg/mL (≈ 134 µM).
